Reference: PubChem BioAssay AID248 (DTP/NCI, 2004)
Inconclusive results and toxic doses are left out. No stated cut-off is given here; in the data, active means T/C of 150% or more; inactive means T/C below 125%.

Test system: L1210 leukemia ip in BDF1 mice, survival T/C
Assay: NCI In Vivo Anticancer Drug Screen. Data for tumor model L1210 Leukemia (intraperitoneal) in B6D2F1 (BDF1) mice
Details: endpoint: mean survival time, higher = longer survival
Method in brief: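 Value reflects the ratio of survival in compound-treated mice to survival in vehicle-treated controls, with both groups carrying the same transplanted tumor.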

[1] = dose: 50.0 mg/kg/injection, schedule: Q01DX001 (ip), vehicle: Klucel (hydroxypropylcellulose) (HPC)
[2] = dose: 100.0 mg/kg/injection, schedule: Q01DX001 (ip), vehicle: Klucel (hydroxypropylcellulose) (HPC)
[3] = dose: 200.0 mg/kg/injection, schedule: Q01DX001 (ip), vehicle: Klucel (hydroxypropylcellulose) (HPC)
[4] = dose: 100.0 mg/kg/injection, schedule: Q01DX009 (ip), vehicle: Klucel (hydroxypropylcellulose) (HPC)
[5] = dose: 100.0 mg/kg/injection, schedule: Q04DX003 (ip), vehicle: Klucel (hydroxypropylcellulose) (HPC)
[6] = dose: 200.0 mg/kg/injection, schedule: Q01DX009 (ip), vehicle: Klucel (hydroxypropylcellulose) (HPC)
[7] = dose: 200.0 mg/kg/injection, schedule: Q04DX003 (ip), vehicle: Klucel (hydroxypropylcellulose) (HPC)
[8] = dose: 400.0 mg/kg/injection, schedule: Q01DX009 (ip), vehicle: Klucel (hydroxypropylcellulose) (HPC)
[9] = dose: 400.0 mg/kg/injection, schedule: Q04DX003 (ip), vehicle: Klucel (hydroxypropylcellulose) (HPC)

Measured: T/C

NC(=O)C(NC(=O)c1ccc([N+](=O)[O-])cc1)SCc1ccccc1 (stereo not given)
inactive: dose: 100.0 mg/kg/injection, schedule: Q04DX002 (ip), vehicle: gum acacia 96 % of control | dose: 200.0 mg/kg/injection, schedule: Q04DX002 (ip), vehicle: gum acacia 90 % of control | dose: 400.0 mg/kg/injection, schedule: Q04DX002 (ip), vehicle: gum acacia 86 % of control

O=C1c2ccccc2-c2cccc3ccc(Cc4ccccc4)c1c23
inactive: dose: 100.0 mg/kg/injection, schedule: Q01DX001 (ip), vehicle: saline with Tween-80 88 % of control | dose: 200.0 mg/kg/injection, schedule: Q01DX001 (ip), vehicle: saline with Tween-80 92 % of control

O=C1C(=O)c2ccccc2C(O)=C1c1ccc(Br)cc1
inactive: dose: 50.0 mg/kg/injection, schedule: Q01DX001 (ip), vehicle: carboxymethylcellulose (CMC) 120 % of control | dose: 100.0 mg/kg/injection, schedule: Q01DX001 (ip), vehicle: carboxymethylcellulose (CMC) 103 % of control

c1cc2ccsc2cn1
inactive: dose: 12.5 mg/kg/injection, schedule: Q01DX009 (ip), vehicle: saline with Tween-80 104 % of control | dose: 12.5 mg/kg/injection, schedule: Q04DX003 (ip), vehicle: saline with Tween-80 110 % of control | dose: 25.0 mg/kg/injection, schedule: Q01DX009 (ip), vehicle: saline with Tween-80 103 % of control | dose: 25.0 mg/kg/injection, schedule: Q04DX003 (ip), vehicle: saline with Tween-80 104 % of control | dose: 50.0 mg/kg/injection, schedule: Q01DX009 (ip), vehicle: saline with Tween-80 102 % of control | dose: 50.0 mg/kg/injection, schedule: Q04DX003 (ip), vehicle: saline with Tween-80 103 % of control

CC1=CCCC(C)C12CCC(C(C)(C)O)C2 (stereo not given)
inactive: dose: 50.0 mg/kg/injection, schedule: Q01DX009 (ip), vehicle: other 104 % of control | dose: 100.0 mg/kg/injection, schedule: Q01DX009 (ip), vehicle: other 98 % of control | dose: 100.0 mg/kg/injection, schedule: Q04DX003 (ip), vehicle: saline sonified 103 % of control | dose: 200.0 mg/kg/injection, schedule: Q01DX009 (ip), vehicle: other 100 % of control | dose: 200.0 mg/kg/injection, schedule: Q04DX003 (ip), vehicle: saline sonified 107 % of control

O=C1C=C(N2C3C4CCC(C4)C32)C(=O)C=C1c1ccccc1 (stereo not given)
inactive: [1] 96 % of control | [2] 97 % of control | [3] 94 % of control

CC1(C)OC(=O)C(C(=O)O)C1c1ccccc1 (stereo not given)
inactive: dose: 100.0 mg/kg/injection, schedule: Q01DX001 (ip), vehicle: saline 97 % of control | dose: 200.0 mg/kg/injection, schedule: Q01DX001 (ip), vehicle: saline 94 % of control

Cc1ccc(S(=O)(=O)NCC(=O)NCC(=O)Oc2c(Cl)c(Cl)c(Cl)c(Cl)c2Cl)cc1
inactive: dose: 100.0 mg/kg/injection, schedule: Q01DX001 (ip), vehicle: water 95 % of control | dose: 200.0 mg/kg/injection, schedule: Q01DX001 (ip), vehicle: water 96 % of control | dose: 400.0 mg/kg/injection, schedule: Q01DX001 (ip), vehicle: water 95 % of control

[N-]=[N+]=CC(=O)NCC(N)=O
inactive: dose: 125.0 mg/kg/injection, schedule: Q01DX009 (ip), vehicle: other 110 % of control | dose: 125.0 mg/kg/injection, schedule: Q01DX009 (sc), vehicle: other 91 % of control | dose: 222.0 mg/kg/injection, schedule: Q01DX Z (ip), vehicle: water 121 % of control | dose: 250.0 mg/kg/injection, schedule: Q01DX009 (sc), vehicle: other 97 % of control | dose: 500.0 mg/kg/injection, schedule: Q01DX009 (sc), vehicle: other 103 % of control | dose: 750.0 mg/kg/injection, schedule: Q01DX009 (sc), vehicle: other 97 % of control | dose: 750.0 mg/kg/injection, schedule: Q01DX Z (ip), vehicle: water 104 % of control

C(/C=N/N(c1ccccc1)c1ccccc1)=N\N(c1ccccc1)c1ccccc1
inactive: [4] 97 % of control | [5] 101 % of control | [6] 92 % of control | [7] 106 % of control | [8] 95 % of control | [9] 93 % of control

O=[N+]([O-])/C=C/c1cccc2ccccc12
inactive: dose: 75.0 mg/kg/injection, schedule: Q01DX001 (ip), vehicle: saline 94 % of control | dose: 150.0 mg/kg/injection, schedule: Q01DX001 (ip), vehicle: saline 94 % of control | dose: 300.0 mg/kg/injection, schedule: Q01DX001 (ip), vehicle: saline 101 % of control

O=C(Oc1cccc(OC(=O)c2ccc(Cl)cc2)c1)c1ccc(Cl)cc1
inactive: [2] 100 % of control | [4] 112 % of control | [3] 100 % of control | [6] 110 % of control | dose: 400.0 mg/kg/injection, schedule: Q01DX001 (ip), vehicle: Klucel (hydroxypropylcellulose) (HPC) 93 % of control | [8] 108 % of control

CCc1ccccc1NC(=O)Sc1ccccc1C
inactive: [4] 90 % of control | [5] 110 % of control | [6] 87 % of control | [7] 102 % of control | [9] 100 % of control

CC1CCCN(N=Nc2ccc(Br)cc2-c2nc(N)c3cc(Br)ccc3n2)C1 (stereo not given)
inactive: dose: 25.0 mg/kg/injection, schedule: Q01DX001 (ip), vehicle: Klucel (hydroxypropylcellulose) (HPC) 97 % of control | [1] 105 % of control | [2] 102 % of control

NC1C(=O)NC(=O)NC1=O
inactive: dose: 50.0 mg/kg/injection, schedule: Q01DX009 (ip), vehicle: carboxymethylcellulose (CMC) 100 % of control | dose: 100.0 mg/kg/injection, schedule: Q01DX009 (ip), vehicle: carboxymethylcellulose (CMC) 103 % of control | dose: 100.0 mg/kg/injection, schedule: Q04DX002 (ip), vehicle: Klucel (hydroxypropylcellulose) (HPC) 102 % of control | dose: 200.0 mg/kg/injection, schedule: Q01DX009 (ip), vehicle: carboxymethylcellulose (CMC) 92 % of control | dose: 200.0 mg/kg/injection, schedule: Q04DX002 (ip), vehicle: Klucel (hydroxypropylcellulose) (HPC) 104 % of control

CCCC(=O)OCC1CC2C=CC1C2 (stereo not given)
inactive: dose: 222.0 mg/kg/injection, schedule: Q01DX Z (ip), vehicle: saline 100 % of control | dose: 333.0 mg/kg/injection, schedule: Q01DX Z (ip), vehicle: saline 102 % of control | dose: 500.0 mg/kg/injection, schedule: Q01DX Z (ip), vehicle: saline 112 % of control

O=C1C=CC(=O)C(SCC(O)CO)=C1 (stereo not given)
inactive: dose: 9.5 mg/kg/injection, schedule: Q01DX001 (ip), vehicle: other 94 % of control | dose: 19.0 mg/kg/injection, schedule: Q01DX001 (ip), vehicle: other 95 % of control | dose: 38.0 mg/kg/injection, schedule: Q01DX001 (ip), vehicle: other 100 % of control

CC(C)(O)CCCC1CCC2C3CCC4CCCCC4(C)C3CCC2(C)C1O (stereo not given)
inactive: dose: 100.0 mg/kg/injection, schedule: Q04DX002 (ip), vehicle: DMSO 86 % of control | dose: 200.0 mg/kg/injection, schedule: Q04DX002 (ip), vehicle: DMSO 96 % of control | dose: 400.0 mg/kg/injection, schedule: Q04DX002 (ip), vehicle: DMSO 92 % of control
